Experimental data reported in patent US6737383B1, “Herbicidal oxadiazolidines” (priority 1999, dated 2004).

Assays:
cocklebur = assay: Test B pre/postemergence cocklebur; assay type: in vivo, Xanthium strumarium
Procedure, shortened: (§1)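 Response is a visual 0-to-10 score relative to untreated plants, where 0 means no effect and 10 means complete control, taken twelve to sixteen days after application. Treatments went onto soil at planting and onto foliage of 1- to 4-leaf plants, using a surfactant-containing non-phytotoxic solvent.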

morningglory = assay: Test B pre/postemergence morningglory; assay type: in vivo, Ipomoea hederacea
Procedure, shortened: as §1

corn = assay: Test B pre/postemergence corn; assay type: in vivo, Zea mays
Procedure, shortened: as §1

pigweed = assay: Test B pre/postemergence pigweed; assay type: in vivo, Amaranthus retroflexus
Procedure, shortened: as §1

smallflower flatsedge = assay: Test B flood test smallflower flatsedge; assay type: in vivo, Cyperus difformis
Procedure, shortened: (§2)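 Plants were grown to the 2-leaf stage before treatment with test chemical, then held in a greenhouse for twelve to sixteen days. Injury was visually rated against untreated controls on a 0–10 scale, where 0 is no effect and 10 is complete control.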

wheat = assay: Test B pre/postemergence wheat; assay type: in vivo, Triticum aestivum
Procedure, shortened: as §1

soybean = assay: Test B pre/postemergence soybean; assay type: in vivo, Glycine max
Procedure, shortened: as §1

duck salad = assay: Test B flood test duck salad; assay type: in vivo, Heteranthera limosa
Procedure, shortened: as §2

crabgrass = assay: Test B pre/postemergence crabgrass; assay type: in vivo, Digitaria sanguinalis
Procedure, shortened: as §1

sugar beet = assay: Test B pre/postemergence sugar beet; assay type: in vivo, Beta vulgaris
Procedure, shortened: as §1

blackgrass = assay: Test B pre/postemergence blackgrass; assay type: in vivo, Alopecurus myosuroides
Procedure, shortened: as §1

giant foxtail = assay: Test B pre/postemergence giant foxtail; assay type: in vivo, Setaria faberii
Procedure, shortened: as §1

rape = assay: Test B pre/postemergence rape; assay type: in vivo, Brassica napus
Procedure, shortened: as §1

purple nutsedge = assay: Test B pre/postemergence purple nutsedge; assay type: in vivo, Cyperus rotundus; details: Preemergence
Procedure, shortened: as §1

velvetleaf = assay: Test B pre/postemergence velvetleaf; assay type: in vivo, Abutilon theophrasti
Procedure, shortened: as §1

rice = assay: Test B flood test rice; assay type: in vivo, Oryza sativa
Procedure, shortened: as §2

[1] = Postemergence, Rate 250 g/ha, scale 0 to 10, 0 no effect, 10 complete control
[2] = Postemergence, Rate 1000 g/ha, scale 0 to 10 (0 no effect, 10 complete control)
[3] = Preemergence, Rate 250 g/ha, scale of 0 to 10 where 0 is no effect and 10 is complete control
[4] = Preemergence, Rate 500 g/ha, scale 0 (no effect) to 10 (complete control)
[5] = Rate 125 g/ha, Postemergence, scale 0 to 10, 0 no effect, 10 complete control
[6] = Rate 500 g/ha, Postemergence, 0 to 10 scale (0 no effect, 10 complete control)
[7] = Rate 1000 g/ha, Preemergence, scale 0 to 10 (0 no effect, 10 complete control)
[8] = Preemergence, Rate 125 g/ha, scale 0 to 10 (0 no effect, 10 complete control)
[9] = Rate 125 g/ha, Postemergence section (flood test species), scale 0 to 10, 0 no effect, 10 complete control
[10] = Rate 250 g/ha, headed Pre-emergence (flood test species), scale 0 to 10 (0 no effect, 10 complete control)
[11] = Rate 500 g/ha, headed Pre-emergence (flood test species), scale 0 to 10 (0 no effect, 10 complete control)
[12] = Rate 2000 g/ha, Pre-emergence (as headed), scale 0 to 10
[13] = flood test, listed under Postemergence, Rate 250 g/ha, scale 0 to 10, 0 no effect, 10 complete control
[14] = Rate 500 g/ha, Postemergence section of Table B, 0 to 10 scale (0 no effect, 10 complete control)
[15] = Rate 1000 g/ha, Pre-emergence (as headed), scale 0 to 10

CC(C)N(C(=O)n1oc(=O)n(-c2ccc(Cl)cc2Cl)c1=O)c1ccc(F)cc1 [Compound 7, 4-(2,4-Dichlorophenyl)-N-(4-fluorophenyl)-N-(1-methylethyl)-3,5-dioxo-1,2,4-oxadiazolidine-2-carboxamide]
Cocklebur plant response rating (cocklebur; [1]): 0
Cocklebur plant response rating (cocklebur; [2]): 2
Plant response rating, Cocklebur (cocklebur; [3]): 0
Cocklebur plant response rating (cocklebur; [4]): 0
Cocklebur plant response rating (cocklebur; [5]): 0
Cocklebur plant response rating (cocklebur; [6]): 0
Plant response rating, Cocklebur (cocklebur; [7]): 0
Morningglory plant response rating (morningglory; [2]): 3
Plant response rating, Morningglory (morningglory; [8]): 0
Plant response rating, Morningglory (morningglory; [3]): 0
Morningglory plant response rating (morningglory; [4]): 0
Morningglory plant response rating (morningglory; [5]): 0
Morningglory plant response rating (morningglory; [6]): 0
Plant response rating, Morningglory (morningglory; [7]): 0
Corn plant response rating (corn; [1]): 0
Corn plant response rating (corn; [2]): 0
Plant response rating, Corn (corn; [8]): 0
Plant response rating, Corn (corn; [3]): 0
Corn plant response rating (corn; [4]): 0
Corn plant response rating (corn; [5]): 0
Corn plant response rating (corn; [6]): 0
Plant response rating, Corn (corn; [7]): 0
Redroot pigweed plant response rating (pigweed; [1]): 0
Redroot pigweed plant response rating (pigweed; [2]): 0
Plant response rating, Redroot pigweed (pigweed; [8]): 0
Plant response rating, Redroot pigweed (pigweed; [3]): 0
Redroot pigweed plant response rating (pigweed; [4]): 0
Redroot pigweed plant response rating (pigweed; [5]): 0
Redroot pigweed plant response rating (pigweed; [6]): 0
Plant response rating, Redroot pigweed (pigweed; [7]): 2
S. Flatsedge plant response rating (smallflower flatsedge; [2]): 0
S. Flatsedge plant response rating (smallflower flatsedge; Pre-emergence, Rate 1000 g/ha, scale 0 to 10 (0 no effect, 10 complete control)): 0
S. Flatsedge plant response rating (smallflower flatsedge; [9]): 0
S. Flatsedge plant response rating (smallflower flatsedge; [10]): 0
Plant response rating, S. Flatsedge (smallflower flatsedge; [11]): 0
S. Flatsedge plant response rating (smallflower flatsedge; [12]): 0
S. Flatsedge plant response rating (smallflower flatsedge; [13]): 0
Wheat plant response rating (wheat; [1]): 0
Wheat plant response rating (wheat; [2]): 2
Plant response rating, Wheat (wheat; [8]): 0
Plant response rating, Wheat (wheat; [3]): 0
Wheat plant response rating (wheat; [4]): 0
Wheat plant response rating (wheat; [5]): 0
Plant response rating, Wheat (wheat; [7]): 0
Soybean plant response rating (soybean; [1]): 1
Soybean plant response rating (soybean; [2]): 5
Plant response rating, Soybean (soybean; [8]): 0
Plant response rating, Soybean (soybean; [3]): 0
Soybean plant response rating (soybean; [4]): 0
Soybean plant response rating (soybean; [5]): 0
Plant response rating, Soybean (soybean; [7]): 0
Ducksalad plant response rating (duck salad; [2]): 0
Ducksalad plant response rating (duck salad; [9]): 0
Ducksalad plant response rating (duck salad; [10]): 0
Ducksalad plant response rating (duck salad; [14]): 0
Plant response rating, Ducksalad (duck salad; [11]): 0
Ducksalad plant response rating (duck salad; [15]): 0
Ducksalad plant response rating (duck salad; [12]): 0
Ducksalad plant response rating (duck salad; [13]): 0
Crabgrass plant response rating (crabgrass; [1]): 1
Crabgrass plant response rating (crabgrass; [2]): 5
Plant response rating, Crabgrass (crabgrass; [8]): 7
Crabgrass plant response rating (crabgrass; [4]): 8
Crabgrass plant response rating (crabgrass; [5]): 0
Crabgrass plant response rating (crabgrass; [6]): 3
Plant response rating, Crabgrass (crabgrass; [7]): 8
Sugarbeets plant response rating (sugar beet; [1]): 0
Sugarbeets plant response rating (sugar beet; [2]): 2
Plant response rating, Sugarbeets (sugar beet; [8]): 0
Plant response rating, Sugarbeets (sugar beet; [3]): 0
Sugarbeets plant response rating (sugar beet; [4]): 0
Sugarbeets plant response rating (sugar beet; [5]): 0
Plant response rating, Sugarbeets (sugar beet; [7]): 0
Blackgrass plant response rating (blackgrass; [1]): 2
Blackgrass plant response rating (blackgrass; [2]): 6
Plant response rating, Blackgrass (blackgrass; [8]): 0
Plant response rating, Blackgrass (blackgrass; [3]): 0
Blackgrass plant response rating (blackgrass; [4]): 0
Blackgrass plant response rating (blackgrass; [5]): 0
Blackgrass plant response rating (blackgrass; [6]): 3
Plant response rating, Blackgrass (blackgrass; [7]): 2
Giant foxtail plant response rating (giant foxtail; [1]): 3
Giant foxtail plant response rating (giant foxtail; [2]): 6
Plant response rating, Giant foxtail (giant foxtail; [8]): 2
Plant response rating, Giant foxtail (giant foxtail; [3]): 5
Giant foxtail plant response rating (giant foxtail; [4]): 8
Giant foxtail plant response rating (giant foxtail; [5]): 0
Giant foxtail plant response rating (giant foxtail; [6]): 5
Plant response rating, Giant foxtail (giant foxtail; [7]): 9
Rape plant response rating (rape; [1]): 0
Rape plant response rating (rape; [2]): 0
Plant response rating, Rape (rape; [8]): 0
Plant response rating, Rape (rape; [3]): 0
Rape plant response rating (rape; [4]): 0
Rape plant response rating (rape; [5]): 0
Rape plant response rating (rape; [6]): 0
Plant response rating, Rape (rape; [7]): 0
Plant response rating, Nutsedge (purple nutsedge; Rate 125 g/ha, scale 0 to 10 (0 no effect, 10 complete control)): 0
Plant response rating, Nutsedge (purple nutsedge; Rate 250 g/ha, scale of 0 to 10 where 0 is no effect and 10 is complete control): 0
Nutsedge plant response rating (purple nutsedge; Rate 500 g/ha, scale 0 (no effect) to 10 (complete control)): 0
Plant response rating, Nutsedge (purple nutsedge; Rate 1000 g/ha, scale 0 to 10 (0 no effect, 10 complete control)): 0
Velvetleaf plant response rating (velvetleaf; [1]): 0
Velvetleaf plant response rating (velvetleaf; [2]): 0
Plant response rating, Velvetleaf (velvetleaf; [8]): 0
Plant response rating, Velvetleaf (velvetleaf; [3]): 0
Velvetleaf plant response rating (velvetleaf; [4]): 0
Velvetleaf plant response rating (velvetleaf; [5]): 0
Plant response rating, Velvetleaf (velvetleaf; [7]): 0
Rice plant response rating (rice; [2]): 0
Rice plant response rating (rice; [9]): 0
Rice plant response rating (rice; [10]): 0
Rice plant response rating (rice; [14]): 0
Plant response rating, Rice (rice; [11]): 0
Rice plant response rating (rice; [15]): 0
Rice plant response rating (rice; [12]): 0
Rice plant response rating (rice; [13]): 0
